Data published in patent US20240425517A1, “NOVEL COMPOUND FOR DEGRADATION OF TARGET PROTEIN OR POLYPEPTIDE BY POLYUBIQUITINATION” (PRAZER THERAPEUTICS INC., priority 2021, published 2024).

The compounds below were run against T1, Aurora A proteins (Homo sapiens, UniProt O14965) (assay: Degradation of Aurora A protein in MM.1S cell lines (Western blot densitometry)). Conditions: MM1.S, 24 h, read-out: Aurora A degrading capacity (%).
T1 construct: endogenous in cells; host or cells: MM.1S
T1 sequence (O14965 1-403): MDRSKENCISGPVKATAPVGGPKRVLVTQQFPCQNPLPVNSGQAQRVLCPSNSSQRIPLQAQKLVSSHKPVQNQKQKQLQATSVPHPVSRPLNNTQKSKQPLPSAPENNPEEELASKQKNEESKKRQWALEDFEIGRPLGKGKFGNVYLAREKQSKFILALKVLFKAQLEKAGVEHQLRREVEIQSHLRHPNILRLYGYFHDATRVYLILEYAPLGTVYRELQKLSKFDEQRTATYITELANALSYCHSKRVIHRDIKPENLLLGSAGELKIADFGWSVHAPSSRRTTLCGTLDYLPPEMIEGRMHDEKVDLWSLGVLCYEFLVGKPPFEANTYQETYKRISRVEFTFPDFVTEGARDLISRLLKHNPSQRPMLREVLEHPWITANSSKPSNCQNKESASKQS
Format: cell-based
Experimental: Specifically, the MM.1S cells were cultured in RPMI-1640 medium containing 10% fetal bovine serum (FBS), 1% penicillin, and streptomycin (100 U/mL), transferred to a 6-well plate, and after 24 hours, the Aurora A degraders were diluted in the RPMI culture medium and cells were treated with 5 μM concentration thereof. After treatment, the cells were incubated in a CO2 incubator for 24 hours. […] After cell culture was completed according to the experimental conditions, the cells were collected and centrifuged at 1,800 rpm for 3 minutes. The cells in the precipitate were lysed with RIPA (25 mM Tris-HCl pH 7.6, 150 mM NaCl, 1% NP-40, 1% sodium deoxycholate, 0.1% SDS, 1× Protease Inhibitor Cocktail), 5× sample buffer was added, and then heated at 100° C. for 15 minutes. The prepared sample was electrophoresed with sodium dodecyl sulfate poly acrylamide gel electrophoresis (SDS-PAGE), and then the proteins in the gel were transferred to a PVDF membrane using Trans-Blot Turbo. The membrane was treated with a 5% bovine serum albumin (BSA) solution and blocked at room temperature for 2 hours, and then Aurora A and R-actin antibodies were diluted in the 5% BSA solution to react with the membrane at 4° C. overnight. After washed with PBST (0.5% Tween20) 5 times, horse radish peroxidase (HRP)-conjugated secondary antibodies were diluted in PBST to react at room temperature for 2 hours, and then washed again with a PBST solution 5 times. After enzyme-substrate reaction was carried out using a HRP substrate, a signal was measured with chemi-doc equipment, and the densitometry of a band corresponding to the Aurora A protein detected in the Preparation Example Compounds was quantitatively analyzed. The case when the degrading capacity of each Aurora A degrader was reduced by less than 40% is indicated as +, the case when the degrading capacity was reduced by 40% to 70% (exclusive of 70) is indicated as ++, the case when the degrading capacity was reduced by 70% or more is indicated as +++ in Tables 20 to 23 below.

Q: How did the Aurora A degradation (%) at 5 µM turn out when COc1cc(Nc2ncc3c(n2)-c2ccc(Cl)cc2C(c2c(F)cccc2OC)=NC3)ccc1C(=O)Nc1ccc(C#CCN)cc1 [1-1″, N-(4-(3-aminoprop-1-yn-1-yl)phenyl)-4-((9-chloro-7-(2-fluoro-6-methoxyphenyl)-5H-benzo[c]pyrimido[4,5-e]azepin-2-yl)amino)-2-methoxybenzamide trifluoroacetic acid] was run?
A: > 70%

Q: COc1cc(Nc2ncc3c(n2)-c2ccc(Cl)cc2C(c2c(F)cccc2OC)=NC3)ccc1C(=O)Nc1cccc(C#CCN)c1 [1-3″, N-(3-(3-aminoprop-1-yn-1-yl)phenyl)-4-((9-chloro-7-(2-fluoro-6-methoxyphenyl)-5H-benzo[c]pyrimido[4,5-e]azepin-2-yl)amino)-2-methoxybenzamide trifluoroacetic acid] was tested. Which Aurora A degradation (%) at 5 µM did it give?
A: > 70%

Q: Which Aurora A degradation (%) at 5 µM does the source give for COC(=O)c1ccc(NC(=O)c2ccc(Nc3ncc4c(n3)-c3ccc(Cl)cc3C(c3c(F)cccc3OC)=NC4)cc2OC)cc1C#CCN [3-25″, methyl 2-(3-aminoprop-1-yn-1-yl)-4-(4-((9-chloro-7-(2-fluoro-6-methoxyphenyl)-5H-benzo[c]pyrimido[4,5-e]azepin-2-yl)amino)-2-methoxybenzamido)benzoate trifluoroacetic acid] here?
A: < 40%

Q: COc1cc(Nc2ncc3c(n2)-c2ccc(Cl)cc2C(c2c(F)cccc2OC)=NC3)ccc1C(=O)Nc1ccc(C#CC(N)CO)cc1 (stereo not drawn) [3-49″, N-(4-(3-amino-4-hydroxybut-1-yn-1-yl)phenyl)-4-((9-chloro-7-(2-fluoro-6-methoxyphenyl)-5H-benzo[c]pyrimido[4,5-e]azepin-2-yl)amino)-2-methoxybenzamide trifluoroacetic acid] was tested. Which Aurora A degradation (%) at 5 µM did it give?
A: > 70%

Q: Which Aurora A degradation (%) at 5 µM does the source give for COc1cc(Nc2ncc3c(n2)-c2ccc(Cl)cc2C(c2c(F)cccc2OC)=NC3)ccc1C(=O)NCC#Cc1ccc(C#CCN)o1 [4-1″, N-(3-(5-(3-aminoprop-1-yn-1-yl)furan-2-yl)prop-2-yn-1-yl)-4-((9-chloro-7-(2-fluoro-6-methoxyphenyl)-5H-benzo[c]pyrimido[4,5-e]azepin-2-yl)amino)-2-methoxybenzamide trifluoroacetic acid] here?
A: > 70%

Q: How did the Aurora A degradation (%) at 5 µM turn out when COc1cc(Nc2ncc3c(n2)-c2ccc(Cl)cc2C(c2c(F)cccc2OC)=NC3)ccc1C(=O)NCCCCCC(=O)Nc1ccc(C#CCN)cc1 [4-165″, N-(6-((4-(3-aminoprop-1-yn-1-yl)phenyl)amino)-6-oxohexyl)-4-((9-chloro-7-(2-fluoro-6-methoxyphenyl)-5H-benzo[c]pyrimido[4,5-e]azepin-2-yl)amino)-2-methoxybenzamide trifluoroacetic acid] was run?
A: > 70%

Q: For COc1cc(Nc2ncc3c(n2)-c2ccc(Cl)cc2C(c2c(F)cccc2OC)=NC3)ccc1C(=O)NCCCNC(=O)c1ccc(C#CCN)o1 [4-166″, 5-(3-aminoprop-1-yn-1-yl)-N-(3-(4-((9-chloro-7-(2-fluoro-6-methoxyphenyl)-5H-benzo[c]pyrimido[4,5-e]azepin-2-yl)amino)-2-methoxybenzamido)propyl)furan-2-carboxamide trifluoroacetic acid], which Aurora A degradation (%) at 5 µM is on record?
A: < 40%

Q: How did the Aurora A degradation (%) at 5 µM turn out when COC(=O)c1ccc(NC(=O)CCCNC(=O)c2ccc(Nc3ncc4c(n3)-c3ccc(Cl)cc3C(c3c(F)cccc3OC)=NC4)cc2OC)cc1C#CCN [4-228″, methyl 2-(3-aminoprop-1-yn-1-yl)-4-(4-(4-((9-chloro-7-(2-fluoro-6-methoxyphenyl)-5H-benzo[c]pyrimido[4,5-e]azepin-2-yl)amino)-2-methoxybenzamido)butanamido)benzoate trifluoroacetic acid] was run?
A: 40 to 70%

Q: For COc1cc(Nc2ncc3c(n2)-c2ccc(Cl)cc2C(c2c(F)cccc2OC)=NC3)ccc1C(=O)NCCCC(=O)Nc1ccc(C#CCN)c(CO)c1 [5-8″, N-(4-((4-(3-aminoprop-1-yn-1-yl)-3-(hydroxymethyl)phenyl)amino)-4-oxobutyl)-4-((9-chloro-7-(2-fluoro-6-methoxyphenyl)-5H-benzo[c]pyrimido[4,5-e]azepin-2-yl)amino)-2-methoxybenzamide trifluoroacetic acid], which Aurora A degradation (%) at 5 µM is on record?
A: < 40%
